Columns and labels:
[1] = test system: DNA Seq15 (DNA, single strand) TGAAGGATGGT; assay: fluorescence polarization; details: 100 mM NaCl, 1 mM MgCl2; 20 mM HEPES, 25 °C; 0.5 μM SMN-C2
[2] = test system: S16 (DNA, single strand) AAAAGAAGGAAGTTGCTC; assay: fluorescence polarization; details: 100 mM NaCl, 1 mM MgCl2; 20 mM HEPES, 25 °C, 0.5 μM compound
[3] = test system: DNA Seq7 (DNA, single strand) TTAAGGAAGGT; assay: fluorescence polarization; details: 100 mM NaCl, 1 mM MgCl2; 20 mM HEPES, 25 °C; 0.5 μM SMN-C2
[4] = test system: RNA Seq17 (RNA, single strand) UGAAGGAAGAU; assay: fluorescence polarization; details: 100 mM NaCl; 20 mM HEPES, 25 °C; 0.5 μM SMN-C2
[5] = test system: S10 (DNA, single strand) AAAAGTAGGAAGGTGCTC; assay: fluorescence polarization; details: 100 mM NaCl, 1 mM MgCl2; 20 mM HEPES, 25 °C, 0.5 μM compound
[6] = test system: DNA S8 (DNA, single strand) AAATGAAGGAAGGTGCTC; assay: fluorescence polarization; details: 100 mM NaCl, 1 mM MgCl2; 20 mM HEPES, 25 °C; 0.5 μM SMN-C2
[7] = test system: S2 (DNA, single strand) AAAAGAAGGAAGGAGCAC; assay: fluorescence polarization; details: 100 mM NaCl, 1 mM MgCl2; 20 mM HEPES, 25 °C, 0.5 μM compound
[8] = test system: RNA Seq21 (RNA, hairpin) GCGCCGACUGAAGGAAGGAGUCGGCGC; assay: fluorescence polarization; details: 100 mM NaCl; 20 mM HEPES, 25 °C, 0.5 μM compound
[9] = test system: RNA Seq22 (RNA, other) GUGCCAGUUCGCUGGCACUGAAGGAAGGU; assay: fluorescence polarization; details: 100 mM NaCl; 20 mM HEPES, 25 °C, 0.5 μM compound
[10] = test system: DNA Seq23 (DNA, mismatch bulge abasic) GCCAGGCGCACTTTCGAGTGCGCGAAGGAAGGCTGGC; assay: fluorescence polarization; details: 100 mM NaCl, 1 mM MgCl2; 20 mM HEPES, 25 °C, 0.5 μM compound
[11] = test system: RNA Seq12 (RNA, single strand) UGAAAGAAGGU; assay: fluorescence polarization; details: 100 mM NaCl; 20 mM HEPES, 25 °C; 0.5 μM SMN-C2
[12] = test system: S6 (DNA, single strand) AAAAGAAGGAGGGTGCTC; assay: fluorescence polarization; details: 100 mM NaCl, 1 mM MgCl2; 20 mM HEPES, 25 °C, 0.5 μM compound
[13] = test system: S4 (DNA, single strand) AAAAAGAAGAAGGTGCTC; assay: fluorescence polarization; details: 100 mM NaCl, 1 mM MgCl2; 20 mM HEPES, 25 °C, 0.5 μM compound
[14] = test system: S11 (DNA, single strand) AAAAGATGGAAGGTGCTC; assay: fluorescence polarization; details: 100 mM NaCl, 1 mM MgCl2; 20 mM HEPES, 25 °C, 0.5 μM compound
[15] = test system: DNA S18 (DNA, single strand) AAAAGGAGGAAGGTGCTC; assay: fluorescence polarization; details: 100 mM NaCl, 1 mM MgCl2; 20 mM HEPES, 25 °C; 0.5 μM SMN-C2
[16] = test system: S3 (DNA, single strand) AAAAGAAGGAAGGTGATA; assay: fluorescence polarization; details: 100 mM NaCl, 1 mM MgCl2; 20 mM HEPES, 25 °C, 0.5 μM compound
[17] = test system: DNA Seq8 (DNA, single strand) TGAAGGAAGTT; assay: fluorescence polarization; details: 100 mM NaCl, 1 mM MgCl2; 20 mM HEPES, 25 °C; 0.5 μM SMN-C2
[18] = test system: RNA Seq6 (RNA, single strand) UGAAGGAAGGU; assay: fluorescence polarization; details: 100 mM NaCl; 20 mM HEPES, 25 °C; 0.5 μM SMN-C2
[19] = test system: DNA S9 (DNA, single strand) AAAATAAGGAAGGTGCTC; assay: fluorescence polarization; details: 100 mM NaCl, 1 mM MgCl2; 20 mM HEPES, 25 °C; 0.5 μM SMN-C2
[20] = test system: RNA Seq16 (RNA, single strand) UGAAGGAAAGU; assay: fluorescence polarization; details: 100 mM NaCl; 20 mM HEPES, 25 °C; 0.5 μM SMN-C2
[21] = test system: S21 (DNA, single strand) AAAAAAAGGAAGGTGCTC; assay: fluorescence polarization; details: 100 mM NaCl, 1 mM MgCl2; 20 mM HEPES, 25 °C, 0.5 μM compound
[22] = test system: S13 (DNA, single strand) AAAAGAAGGTAGGTGCTC; assay: fluorescence polarization; details: 100 mM NaCl, 1 mM MgCl2; 20 mM HEPES, 25 °C, 0.5 μM compound
[23] = test system: RNA Seq8 (RNA, single strand) UGAAGGAAGUU; assay: fluorescence polarization; details: 100 mM NaCl; 20 mM HEPES, 25 °C; 0.5 μM SMN-C2
[24] = test system: DNA Seq6 (DNA, single strand) TGAAGGAAGGT; assay: fluorescence polarization; details: 100 mM NaCl, 1 mM MgCl2; 20 mM HEPES, 25 °C; 0.5 μM SMN-C2
[25] = test system: RNA Seq13 (RNA, single strand) UGAAGAAAGGU; assay: fluorescence polarization; details: 100 mM NaCl; 20 mM HEPES, 25 °C; 0.5 μM SMN-C2
[26] = test system: DNA Seq13 (DNA, single strand) TGAAGAAAGGT; assay: fluorescence polarization; details: 100 mM NaCl, 1 mM MgCl2; 20 mM HEPES, 25 °C; 0.5 μM SMN-C2
[27] = test system: S7 (DNA, single strand) AATAGAAGGAAGGTGCTC; assay: fluorescence polarization; details: 100 mM NaCl, 1 mM MgCl2; 20 mM HEPES, 25 °C, 0.5 μM compound
[28] = test system: DNA Seq6 (DNA, single strand) TGAAGGAAGGT; assay: ITC; details: 100 mM NaCl; 30 mM MES pH 6.1, 5% DMSO, 25 °C
[29] = test system: DNA Seq9 (DNA, single strand) TTAAGGAAGTT; assay: fluorescence polarization; details: 100 mM NaCl, 1 mM MgCl2; 20 mM HEPES, 25 °C; 0.5 μM SMN-C2
[30] = test system: S12 (DNA, single strand) AAAAGAAGTAAGGTGCTC; assay: fluorescence polarization; details: 100 mM NaCl, 1 mM MgCl2; 20 mM HEPES, 25 °C, 0.5 μM compound
[31] = test system: DNA Seq16 (DNA, single strand) TGAAGGAAAGT; assay: fluorescence polarization; details: 100 mM NaCl, 1 mM MgCl2; 20 mM HEPES, 25 °C; 0.5 μM SMN-C2
[32] = test system: DNA Seq2 (DNA, single strand) GAAGGAAGG; assay: fluorescence polarization; details: 100 mM NaCl, 1 mM MgCl2; 20 mM HEPES, 25 °C; 0.5 μM SMN-C2
[33] = test system: DNA Seq12 (DNA, single strand) TGAAAGAAGGT; assay: fluorescence polarization; details: 100 mM NaCl, 1 mM MgCl2; 20 mM HEPES, 25 °C; 0.5 μM SMN-C2
[34] = test system: S22 (DNA, single strand) AAAAGAAAGAAGGTGCTC; assay: fluorescence polarization; details: 100 mM NaCl, 1 mM MgCl2; 20 mM HEPES, 25 °C, 0.5 μM compound
[35] = test system: RNA Seq20 (RNA, hairpin) UGAAGGAAGGUUUCGACCUUCCUUCA; assay: fluorescence polarization; details: 100 mM NaCl; 20 mM HEPES, 25 °C, 0.5 μM compound
[36] = test system: DNA Seq11 (DNA, single strand) TGGAGGAAGGT; assay: fluorescence polarization; details: 100 mM NaCl, 1 mM MgCl2; 20 mM HEPES, 25 °C; 0.5 μM SMN-C2
[37] = test system: RNA Seq23 (RNA, mismatch bulge abasic) GCCAGGCGCACUUUCGAGUGCGCGAAGGAAGGCUGGC; assay: fluorescence polarization; details: 100 mM NaCl; 20 mM HEPES, 25 °C, 0.5 μM compound
[38] = test system: RNA Seq4 (immobilised) (RNA, single strand) AAGAAGGAAGGUGC; assay: SPR, immobilised RNA; details: running buffer not shown; SMN-C2 up to 20 μM

CCN1CCN(c2ccc3cc(-c4cn5cc(C)nc(C)c5n4)c(=O)oc3c2)C[C@@H]1C
Kd [1]: 41.1 ± 4.4 µM | Kd [2]: 48.9 ± 12.2 µM | Kd [3]: > 100 µM | Kd [4]: 48.2 ± 9.0 µM | Kd [5]: 26.4 ± 2.2 µM | Kd [6]: 12.4 ± 0.4 µM | Kd [7]: 20.2 ± 1.7 µM | Kd [8]: 4.6 ± 0.6 µM | Kd [9]: 11.0 ± 0.8 µM | Kd [10]: 1.1 ± 0.2 µM | Kd [11]: > 100 µM | Kd [12]: 33.3 ± 2.3 µM | Kd [13]: > > 50 µM | Kd [14]: 26.3 ± 1.2 µM | Kd [15]: > 50 µM | Kd [16]: 21.7 ± 2.7 µM | Kd [17]: 14.7 ± 0.7 µM | Kd [18]: 17.5 ± 2.2 µM | Kd [19]: 56.2 ± 13.9 µM | Kd [20]: 77.0 ± 26.0 µM | Kd [21]: > > 50 µM | Kd [22]: 26.4 ± 2.2 µM | Kd [23]: > 100 µM | Kd [24]: 3.1 ± 0.7 µM | Kd [25]: > 100 µM | Kd [26]: > 100 µM | Kd [27]: 17.3 ± 1.7 µM | Kd [28]: 4.8 µM | Kd [29]: > 100 µM | Kd [30]: 37.4 ± 6.7 µM | Kd [31]: 27.4 ± 6.0 µM | Kd [32]: 34.3 ± 9.6 µM | Kd [33]: 17.6 ± 3.4 µM | Kd [34]: 44.7 ± 7.2 µM | Kd [35]: > >100 μM | Kd [36]: 57.3 ± 20.0 µM | Kd [37]: 5.6 ± 1.7 µM | Kd [38]: 5.4 µM
